The subject of one series is Colo-205 cells. The experiment in a line: Annexin V-FITC / propidium iodide apoptosis induction assay, flow cytometry. The class given is cell-based, human. Particulars: 25 μM, 3 h induction. From the text: 12H-Benzo[α]phenothiazine (M627) and cisplatin were used as positive controls. Annexin-V assay offers the possibility of detecting early phases of apoptosis. Apoptosis is a morphologically and biochemically distinct form of programmed cell death, which is the preferred mode of action for an anticancer compound. PI was used to distinguish between viable, early apoptotic and necrotic or late apoptotic cells. […] In order to better understand the different behavior of the studied compounds, an in-depth analysis of the various solution (physico-)chemical properties of the ligands and complexes were performed.
The assay was carried out using an Annexin V-FITC Apoptosis Detection Kit from Sigma-Aldrich according to the manufacturer’s instructions. The concentration of the Colo-205 cell suspension was adjusted to approximately 0.5 × 10^6 cells per mL in RPMI 1640 medium, and the cell suspension was distributed in 1 mL aliquots into a 24-well plate and then incubated overnight at 37 °C and 5% CO2. The next day, the medium was removed and replaced by 1 mL RPMI 1640 medium containing the compounds except for the control samples. […] After the incubation period, the samples were washed with PBS, and a fresh medium was added to the samples. The cells were incubated overnight at 37 °C and 5% CO2. The next day, 200 μL 0.25% Trypsin (Trypsin-Versen) was added to the samples until cells appeared detached, followed by the addition of 400 μL of medium supplemented with 10% bovine serum. The cells were collected in Eppendorf tubes and centrifuged at 2000× g for 2 min. The harvested cells were re-suspended in a fresh serum-free RPMI 1640 culture medium. After this step, the apoptosis assay was carried out according to the protocol of the kit. The fluorescence was analyzed immediately using a ParTec CyFlow flow cytometer (Partec GmbH, Münster, Germany).
(In general: Flow cytometry measures light scatter and fluorescence of single cells or particles in a stream.)

In the next series the test system is Ac-Phe–His–Ala-NH2 (FHA). The experiment in a line: Binding to the His model tripeptide FHA by 1H NMR. Particulars: pH 7.4 (PBS’), 0.5 or 1 mM. From the text: The slow binding kinetics indicates coordination binding mode, and the monodentate coordination of a side chain donor of HSA takes place most likely by the replacement of the co-ligand water or chloride, while the original bidentate (N,O) ligand remains coordinated, as it was also reported to analogous high stability RuCym and RhCp* complexes.
Similar reaction rates with FHA were found for the HQCl-D-Pro and HQCl-D-hPro complexes, and the reaction with this simple oligopeptide is much faster compared to the HSA. Conditional stability constants determined for the complex-FHA ternary species by ^1H NMR spectroscopic measurements (exemplary spectra are presented in Figure S29) are shown in Table 4. […] In all, this oligopeptide model can serve as a good binding model for surface-exposed side chains, although it provides limited information about binding events at more deeply located binding pockets of HSA, where the role of secondary interactions might be more significant.
(§1) Bruker Avance III HD Ascend 500 Plus instrument (Billerica, MA, USA) was used for NMR studies. ^1H NMR spectroscopic measurements were carried out with a WATERGATE water suppression pulse scheme in the presence of 10% (v/v) D2O in most cases. DSS internal standard was added to samples to obtain reference peaks. Complex concentrations were 0.5 mM or 1.0 mM, and 0.5 equiv. HSA was added. ^1H NMR titrations were carried out in the presence of 0.2 M KNO3. With the FHA model peptide, the measurements were performed at 0.5 or 1 mM metal complex concentrations, and 1:1, 1:2 or 2:1 peptide-to-metal complex ratios were applied. The computer program HypSpec was used to obtain stability constants.

Series [1] can be described thus: Proton dissociation and H2O/Cl- exchange constants of the complexes (UV-vis, 1H NMR). In kind it is physicochemical. Particulars: T = 25.0 °C; for logK′ (H2O/Cl−) conditional exchange constant: pH 7.4; for pKa1 of the complex / pKa2 of the complex: I = 0.2 M KNO3. The protocol: In the basic pH range, both the UV-vis and ^1H NMR spectra recorded for the [M(arene)(H2O)3]^2+–ligand (1:1) systems reveal the further chemical transformation of the [M(arene)(HQCl-D-(h)ProH−1)(H2O)]^+ species. […] It should be noted that peaks of the p-cymene CH3 groups are doubled at pH > 10 (Figure S21b), indicating the loss of their symmetry due to the formation of the hydroxido complex, which probably blocks the free rotation of the arene ligand. Two pKa values were determined by both methods for each RuCym complex that is in good agreement (Table 3).
These deprotonation processes take place at somewhat higher pH in the case of the RhCp* complexes compared to the RuCym compounds; however, other differences were also observed.
Thus, only one pKa value could be computed (Table 3), which is rather assigned to the H2O → OH^− process. The peaks of the protons in the ^1H NMR spectra located nearby the metal center (both 8-hydroxyquinoline CH and CH3 protons of RhCp*) and the peaks of the homoproline moiety are shifted by increasing the pH (Figure S22b,c). […] Due to this side-reaction, no pKa values were calculated from the ^1H NMR spectra.
Based on the determined pKa values of the complexes (Table 3), it can be concluded that at physiological pH all of them are present predominantly in their [M(arene)(HQCl-D-(h)ProH−1)(H2O)]^+ form. However, in the presence of chloride ions, the exchange of the aqua ligand to the halide ligand is possible. The water/chloride co-ligand exchange process was monitored spectrophotometrically at pH 7.4, as it was performed for other RuCym and RhCp* complexes in our previous works. […] It can be concluded that the RhCp* complexes have stronger chloride ion affinity. The coordination of the chloride ion changes the charge of the complex; thus, it will also influence lipophilicity. In order to characterize the hydrophilic/lipophilic character of the complexes, n-octanol/buffer aqueous solution partitioning was performed at pH 7.4. The measurements were performed at three kinds of chloride ion concentrations regarding different biofluids (4, 24 and 100 mM for nucleus, cytosol and blood, respectively). The calculated logD7.4 values can be found in Figure 8.
Agilent Cary 8454 diode array spectrophotometer was utilized to obtain UV-vis spectra in the wavelength range 190–1100 nm. The path length (ℓ) was 1 cm in most cases (the actual ℓ is always indicated in the legends of the figures). The concentrations of the ligands and complexes were between 88 and 240 µM. For HSA and ct-DNA containing samples, complex concentrations were 100 µM, and 0.5 and 2 equiv. biomolecule were added for kinetic studies, respectively. Individual samples contained 0–20 µM HSA and 0–1.75 mM (nucleotide) ct-DNA. Spectra were always background corrected. The computer program HypSpec was used to obtain stability constants.
as §1

Structures are written as SMILES. Marks after values point to notes of the source that are not given here.

On to `O=C(O)[C@H]1CCCCN1Cc1cc(Cl)c2cccnc2c1O` [HQCl-D-hPro, (R)-5-chloro-7-((homoproline-1-yl)methyl)8-hydroxyquinoline], for which, in the series on Colo-205 cells, the “cell death (Q1, A− PI+), gated events” value stood at 27.5%; the “early apoptosis (Q3, A+ PI−), gated events” value (from here on “early apoptosis (Q3, A+ PI−)”) was 0.987%; the “late apoptosis and necrosis (Q2, A+ PI+), gated events” value (“late apoptosis and necrosis” for short) turned out to be 9.1%.
Regarding `Cc1c(C)c(C)[c-](C)c1C.O=C(O)[C@H]1CCC[NH+]1Cc1cc(Cl)c2cccnc2c1[O-].[Cl-].[Cl-].[Rh+3]` [RhCp*–HQCl-D-Pro, [RhCp*(HQCl-D-Pro)Cl]Cl], the “FHA logKFHA′” value in the series with Ac-Phe–His–Ala-NH2 (FHA) was 4.4 ± 0.2. Besides, the “logK′ (H2O/Cl−) conditional exchange constant” value in series [1] (UV-vis) was 1.72 ± 0.01. In series [1] (UV-vis, chloride-free), the “pKa1 of the complex” value worked out at 10.08 ± 0.02.
`Cc1c(C)c(C)[c-](C)c1C.O=C(O)[C@H]1CCCC[NH+]1Cc1cc(Cl)c2cccnc2c1[O-].[Cl-].[Cl-].[Rh+3]` [RhCp*–HQCl-D-hPro, [RhCp*(HQCl-D-hPro)Cl]Cl]: in the series on Ac-Phe–His–Ala-NH2 (FHA), the “FHA logKFHA′” value is listed as 4.5 ± 0.2. Besides, in series [1] (1H NMR), the “pKa1 of the complex” value is listed as 9.82 ± 0.13 ^a and the “pKa2 of the complex” value was 10.06 ± 0.06 ^b. Also, in series [1] (UV-vis), the “logK′ (H2O/Cl−) conditional exchange constant” value is reported as 1.79 ± 0.01. In series [1] (UV-vis, chloride-free), the “pKa1 of the complex” value amounted to 10.11 ± 0.02. In the series with Colo-205 cells, the “cell death (Q1, A− PI+), gated events” value came to 20.7%; the “early apoptosis (Q3, A+ PI−)” value is given as 0.838%; the “late apoptosis and necrosis” value worked out at 7.5%. For the same compound, in the series with Colo-205 cells (listed as RhCp*‒HQCl-D-hPro), the “late apoptosis and necrosis” value is on record as 7.50%.
With `Cc1ccc(C(C)C)cc1.O=C(O)[C@H]1CCC[NH+]1Cc1cc(Cl)c2cccnc2c1[O-].[Cl-].[Cl-].[Ru+2]` [RuCym–HQCl-D-Pro, [RuCym(HQCl-D-Pro)Cl]Cl], the “FHA logKFHA′” value in the series with Ac-Phe–His–Ala-NH2 (FHA) is reported as 4.4 ± 0.3. Besides, in series [1] (1H NMR), the “pKa1 of the complex” value was 9.02 ± 0.07 and the “pKa2 of the complex” value came out at 10.69 ± 0.06. The “logK′ (H2O/Cl−) conditional exchange constant” value in series [1] (UV-vis) is recorded as 1.18 ± 0.01. Further, in series [1] (UV-vis, chloride-free), the “pKa1 of the complex” value amounted to 8.96 ± 0.01 and the “pKa2 of the complex” value amounted to 10.67 ± 0.01. In the series with Colo-205 cells, the “cell death (Q1, A− PI+), gated events” value was 27.9%; the “early apoptosis (Q3, A+ PI−)” value is reported as 0.288%; the “late apoptosis and necrosis” value turned out to be 5.37%.
`Cc1ccc(C(C)C)cc1.O=C(O)[C@H]1CCCC[NH+]1Cc1cc(Cl)c2cccnc2c1[O-].[Cl-].[Cl-].[Ru+2]` [RuCym–HQCl-D-hPro, [RuCym(HQCl-D-hPro)Cl]Cl]: the “FHA logKFHA′” value in the series with Ac-Phe–His–Ala-NH2 (FHA) is reported as 4.6 ± 0.2. Besides, in series [1] (1H NMR), the “pKa1 of the complex” value is 8.77 ± 0.05 and the “pKa2 of the complex” value came to 10.13 ± 0.04. In addition, the “logK′ (H2O/Cl−) conditional exchange constant” value in series [1] (UV-vis) was 1.28 ± 0.01. For the same compound, in series [1] (UV-vis, chloride-free), the “pKa1 of the complex” value is reported as 8.78 ± 0.01 and the “pKa2 of the complex” value came out at 10.03 ± 0.02. In addition, in the series on Colo-205 cells, the “late apoptosis and necrosis” value turned out to be 5.4%.
